The values below come from US20080051330A1, “Inhibitors of serine protease activity, methods and compositions for treatment of herpes viruses” (priority 1999, published 2008).

* marks the point of attachment. Cbz = O=C(OCc1ccccc1)*; CHN2 = [N-]=[N+]=C*

The subject of experiment [1] is Herpes simplex virus-2, strain MS. It is filed as in vivo, SCID mouse. As to conditions: SCID mice; for survival rate: HSV-2 at 1000 times LD50 on abraded skin, topical, three times daily for 7 days from 2 hours after inoculation, compound 100 mg/kg, untreated control 20%.
Experiment [2] relates to HSV. As to conditions: at molar concentration lower than that of acyclovir; cited from earlier work.
The subject of the next experiment is CMV. Put plainly: Activity against CMV in vitro: plaque reduction assay in human lung fibroblast cells. The experiment is classed as cell-based. The settings on record: HLF cells, plaques counted day 6-10 post-infection. Background: In a plaque reduction assay, fewer plaques than in the control indicate reduced infectivity or spread.
Experiment [3] has as its system HSV. The experiment in a line: Activity against HSV in vitro: ELISA with rabbit anti-HSV antibody in infected human lung fibroblast cells. It is filed as cell-based, HSV-1 and HSV-2. The settings on record: HLF cells, virus absorbed in presence or absence of AAT.

As to `Nc1nc2c(ncn2COCCO)c(=O)[nH]1` [acyclovir, reference compound], the survival rate result in experiment [1] was “about 60%”. Consider “Cbz-Leu-Val-Gly-CHN2 [reference compound]”, for which the “inhibitory effect on HSV replication” value with HSV [2] is on record as “strong inhibitory effects”.

Turning to “AAT: glycoprotein of MW 51,000 with 394 amino acids and 3 oligosaccharide side chains; serine protease inhibitor”, the “reduction in number of CMV plaques” value with CMV was “significant inhibitory effect”. Moreover, in experiment [1] (HSV-2 at 1000 times LD50), the “percentage of mice surviving, in words, relative to vehicle control” value is on record as “significantly greater”. In addition, the survival rate entry in experiment [1] is listed as “about 60%”. Also, the “effect on HSV by ELISA, optical density expressed as percent of control” value in the experiment on HSV [3] was “significant inhibitory effect”.

B1: Cystatin C: human cysteine proteinase inhibitor present in extracellular fluids (protein, UniProt P01034 27-146, looked up)
Cystatin-C: SSPGKPPRLVGGPMDASVEEEGVRRALDFAVGEYNKASNDMYHSRALQVVRARKQIVAGVNYFLDVELGRTTCTKTQPNLDNCPFHDQPHLKRKAFCSFQIYAVPWQGTMTLSKSTCQDA
On to B1, for which the “inhibitory effect on HSV replication” value with HSV [2] is listed as “strong inhibitory effects”.
